Test results taken from ChEMBL document CHEMBL1201862, “PubChem BioAssay data set” (2004).
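Tested at 5 concentrations; 48 h exposure; 96-well plates; endpoints linearly interpolated, else capped at highest concentration. At the GI50, growth is halved.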 Active and inactive are the calls of the source. Cut-off read from the data, not from the text of the source: active = GI50 up to about 1.1 µM and inactive = higher.

What was measured:
Experiment in all cases: DTP human tumour cell line panel, 48 h
[1] = tested on: A498
[2] = tested on: A549
[3] = tested on: HOP-92
[4] = tested on: Hs-578T
[5] = tested on: IGROV-1
[6] = tested on: KM12
[7] = tested on: MDA-MB-435
[8] = tested on: Malme-3M
[9] = tested on: NCI-H23
[10] = tested on: NCI-H522
[11] = tested on: OVCAR-4
[12] = tested on: OVCAR-8
[13] = tested on: RXF 393
[14] = tested on: SF-268
[15] = tested on: SK-MEL-28
[16] = tested on: SK-OV-3
[17] = tested on: SR
[18] = tested on: SW-620
[19] = tested on: TK-10
[20] = tested on: U-251

| Compound | GI50 [1] | GI50 [2] | GI50 [3] | GI50 [4] | GI50 [5] | GI50 [6] | GI50 [7] | GI50 [8] | GI50 [9] | GI50 [10] | GI50 [11] | GI50 [12] | GI50 [13] | GI50 [14] | GI50 [15] | GI50 [16] | GI50 [17] | GI50 [18] | GI50 [19] | GI50 [20] |
| --- | --- | --- | --- | --- | --- | --- | --- | --- | --- | --- | --- | --- | --- | --- | --- | --- | --- | --- | --- | --- |
| O=C1C(C(O)(C(F)(F)F)C(F)(F)F)CCC1C(O)(C(F)(F)F)C(F)(F)F (configuration not stated) | 0.964 µM (active) | 1.91 µM (inactive) | < 0.01 µM (active) | 1.37 µM (inactive) | 5.48 µM (inactive) | 0.946 µM (active) | 13.2 µM (inactive) | 1.06 µM (active) | 0.769 µM (active) | 1.29 µM (inactive) | 1.18 µM (inactive) | 8.75 µM (inactive) | 0.346 µM (active) | 5.7 µM (inactive) | 3.16 µM (inactive) | 23 µM (inactive) | 0.215 µM (active) | 5.89 µM (inactive) | 42.1 µM (inactive) | 13.5 µM (inactive) |
| O=C1c2cccc([N+](=O)[O-])c2C(=O)N1c1ncn[nH]1 | 53 µM (inactive) | > 100 µM (inactive) | 21.4 µM (inactive) | 36.4 µM (inactive) | > 100 µM (inactive) | > 100 µM (inactive) | > 100 µM (inactive) | > 100 µM (inactive) | > 100 µM (inactive) | > 100 µM (inactive) | > 100 µM (inactive) | 79.3 µM (inactive) | 63.2 µM (inactive) | 37 µM (inactive) | > 100 µM (inactive) | 32.7 µM (inactive) | > 100 µM (inactive) | > 100 µM (inactive) | 27.2 µM (inactive) | 38.6 µM (inactive) |
| O=C1C(Cl)C(c2cc3cc(Br)ccc3nc2Cl)N1c1ccc(Cl)cc1 (configuration not stated) | 16.5 µM (inactive) | 10.4 µM (inactive) | 3.43 µM (inactive) | 9.2 µM (inactive) | 3.02 µM (inactive) | 8.97 µM (inactive) | 5.82 µM (inactive) | 4.56 µM (inactive) | 5.7 µM (inactive) | 3.95 µM (inactive) | 4.46 µM (inactive) | 5.9 µM (inactive) | 5.13 µM (inactive) | 4.51 µM (inactive) | 11.1 µM (inactive) | 10.3 µM (inactive) | 1.64 µM (inactive) | 7.35 µM (inactive) | 5.24 µM (inactive) | – |
| N=C(N)N/N=C/c1c(-c2ccc([N+](=O)[O-])cc2)nc2sc(Cl)cn12 | 0.873 µM (active) | 0.593 µM (active) | 1.73 µM (inactive) | 1.03 µM (active) | 1.78 µM (inactive) | 0.809 µM (active) | 0.902 µM (active) | 1.47 µM (inactive) | 0.841 µM (active) | 1.48 µM (inactive) | 0.441 µM (active) | 0.479 µM (active) | 0.67 µM (active) | 1.42 µM (inactive) | 1.69 µM (inactive) | 1.8 µM (inactive) | 0.0731 µM (active) | 0.226 µM (active) | 2.05 µM (inactive) | 0.418 µM (active) |
| COc1ccc(-c2c(C#N)c(N)nc(S)c2C#N)cc1 | > 100 µM (inactive) | 48.4 µM (inactive) | 40.6 µM (inactive) | 19.1 µM (inactive) | 24.7 µM (inactive) | 41.8 µM (inactive) | 17.3 µM (inactive) | 29.9 µM (inactive) | 38.3 µM (inactive) | 20.5 µM (inactive) | > 100 µM (inactive) | 36.7 µM (inactive) | 33.2 µM (inactive) | 30.7 µM (inactive) | 37.7 µM (inactive) | – | 18.3 µM (inactive) | 22.2 µM (inactive) | 71.3 µM (inactive) | 40.5 µM (inactive) |
| O=CC1C(Cl)=Nc2nc3ccccc3n2C1c1ccccc1 (configuration not stated) | 3.01 µM (inactive) | 23.8 µM (inactive) | 10.4 µM (inactive) | 0.741 µM (active) | 15.9 µM (inactive) | 23.4 µM (inactive) | 38.5 µM (inactive) | 23.9 µM (inactive) | 23.4 µM (inactive) | 14.3 µM (inactive) | 15.2 µM (inactive) | 21.4 µM (inactive) | 13.7 µM (inactive) | 16.8 µM (inactive) | 14.3 µM (inactive) | – | 0.861 µM (active) | 19.4 µM (inactive) | 26.3 µM (inactive) | 18.2 µM (inactive) |
| Cn1c(=O)c2c(nc3n2CCC(=O)N3CCCCl)n(C)c1=O | > 100 µM (inactive) | > 100 µM (inactive) | > 100 µM (inactive) | > 100 µM (inactive) | > 100 µM (inactive) | > 100 µM (inactive) | > 100 µM (inactive) | – | > 100 µM (inactive) | – | > 100 µM (inactive) | > 100 µM (inactive) | – | > 100 µM (inactive) | > 100 µM (inactive) | > 100 µM (inactive) | > 100 µM (inactive) | > 100 µM (inactive) | > 100 µM (inactive) | > 100 µM (inactive) |
| Cc1ccc(S(=O)(=O)NN=C2C(C)CC(C(C)(C)C)CC2C)cc1 (configuration not stated) | 17.4 µM (inactive) | 17.9 µM (inactive) | 15.5 µM (inactive) | 37.2 µM (inactive) | 38.9 µM (inactive) | 17.6 µM (inactive) | 20 µM (inactive) | 17.8 µM (inactive) | 24.4 µM (inactive) | 18.6 µM (inactive) | 14.9 µM (inactive) | 24.1 µM (inactive) | – | – | 20 µM (inactive) | 24.4 µM (inactive) | 26.8 µM (inactive) | 20 µM (inactive) | 26.4 µM (inactive) | 17.7 µM (inactive) |
| CCN(CC)CCNC(=O)c1cc2cc(NC(=O)c3cc4cc(N)ccc4[nH]3)ccc2[nH]1 | > 100 µM (inactive) | 41 µM (inactive) | 24 µM (inactive) | 35 µM (inactive) | – | 14.7 µM (inactive) | 17.7 µM (inactive) | – | 50.6 µM (inactive) | 19.1 µM (inactive) | 8.05 µM (inactive) | 32.2 µM (inactive) | 20.3 µM (inactive) | 31.4 µM (inactive) | > 100 µM (inactive) | 31.3 µM (inactive) | 5.9 µM (inactive) | 33.3 µM (inactive) | > 100 µM (inactive) | 25.6 µM (inactive) |
| CCOC(=O)c1nc2ccc(C(F)(F)F)cc2nc1NCc1ccc(OC)cc1 | 58.6 µM (inactive) | 49.4 µM (inactive) | 47.5 µM (inactive) | 99.5 µM (inactive) | > 100 µM (inactive) | 36 µM (inactive) | > 100 µM (inactive) | 34.4 µM (inactive) | 84.1 µM (inactive) | 11.9 µM (inactive) | 63.7 µM (inactive) | > 100 µM (inactive) | > 100 µM (inactive) | > 100 µM (inactive) | – | > 100 µM (inactive) | 28.2 µM (inactive) | > 100 µM (inactive) | 71.6 µM (inactive) | > 100 µM (inactive) |
| COc1ccc(P2(=S)OCCOP(=S)(c3ccc(OC)cc3)S2)cc1 (configuration not stated) | 2.45 µM (inactive) | 3.01 µM (inactive) | 10.4 µM (inactive) | 5.48 µM (inactive) | 4.03 µM (inactive) | 2.87 µM (inactive) | 1.39 µM (inactive) | 13.7 µM (inactive) | 4.7 µM (inactive) | 2.2 µM (inactive) | 12.3 µM (inactive) | 3.47 µM (inactive) | – | 3.99 µM (inactive) | 18.4 µM (inactive) | – | 3.6 µM (inactive) | 4.54 µM (inactive) | 16.3 µM (inactive) | 4.03 µM (inactive) |
| N#CC(=N)c1ncn(CCO)c1NC(=O)C(F)(F)F | > 100 µM (inactive) | > 100 µM (inactive) | – | > 100 µM (inactive) | > 100 µM (inactive) | > 100 µM (inactive) | > 100 µM (inactive) | > 100 µM (inactive) | > 100 µM (inactive) | > 100 µM (inactive) | > 100 µM (inactive) | > 100 µM (inactive) | > 100 µM (inactive) | > 100 µM (inactive) | > 100 µM (inactive) | > 100 µM (inactive) | > 100 µM (inactive) | > 100 µM (inactive) | > 100 µM (inactive) | > 100 µM (inactive) |
| O=[N+]([O-])C(=C(N1CCOCC1)N1CCOCC1)/C(Cl)=C(\Cl)[N+](=O)[O-] | 20.2 µM (inactive) | 23.1 µM (inactive) | – | 1.18 µM (inactive) | 1.41 µM (inactive) | 16.3 µM (inactive) | 10.3 µM (inactive) | 1.68 µM (inactive) | 3.33 µM (inactive) | 1.48 µM (inactive) | 16 µM (inactive) | – | 1.77 µM (inactive) | 10.6 µM (inactive) | 14.3 µM (inactive) | 52.7 µM (inactive) | 8.77 µM (inactive) | 2.23 µM (inactive) | 1.99 µM (inactive) | 18.9 µM (inactive) |
| O=C1c2ccccc2/C=C\C(c2ccccc2)=N/N1c1ccccc1Cl | 26.5 µM (inactive) | 17.1 µM (inactive) | 26.5 µM (inactive) | 34.5 µM (inactive) | 29.4 µM (inactive) | 11.6 µM (inactive) | 3.44 µM (inactive) | 23.3 µM (inactive) | 28.8 µM (inactive) | 12.2 µM (inactive) | 22.4 µM (inactive) | 27.4 µM (inactive) | 19.2 µM (inactive) | 54.2 µM (inactive) | 24 µM (inactive) | – | > 10 µM (inactive) | 20.1 µM (inactive) | 42.8 µM (inactive) | 21.7 µM (inactive) |
| COC1(C2c3ccccc3CCN2C(=O)OC(C)(C)C)C(=O)C(c2ccccc2)=C1N(C)C (configuration not stated) | 25.4 µM (inactive) | 27.5 µM (inactive) | 44.8 µM (inactive) | 32.7 µM (inactive) | – | 34.4 µM (inactive) | 22.9 µM (inactive) | 35.2 µM (inactive) | 23.3 µM (inactive) | 21.2 µM (inactive) | 46.9 µM (inactive) | 68.7 µM (inactive) | 30.2 µM (inactive) | 45.1 µM (inactive) | 62.4 µM (inactive) | 37.9 µM (inactive) | 79.3 µM (inactive) | 37.8 µM (inactive) | 48.2 µM (inactive) | 37.2 µM (inactive) |
